Legend:
BV2 cells = experiment: BV2 cell proliferation assay (CCK-8); type: cell-based; conditions: Mus musculus, BV-2, 48 h treatment, CCK-8, top concentration 33.3 μM, mean pIC50 of multiple test results, read-out: BV2 Profileration pIC50 (converted)
From the text: (§1) The assay measures the ability of a compound to inhibit cell proliferation using Cell Counting Kit-8 (CCK-8), which allows sensitive colorimetric assays for the determination of cell viability in cell proliferation and cytotoxicity assays. The highly water-soluble tetrazolium salt, WST-8, is reduced by dehydrogenase activities in cells to give a yellow-color formazan dye, which is soluble in the tissue culture media. The amount of the formazan dye, generated by the activities of dehydrogenases in cells, is directly proportional to the number of living cells.
(§2) The assay was performed based on the instruction of the manufacturer (Dojindo Molecular Technologies Inc., Rockville, MD, USA). To start the assay, BV2 cells were seeded at a density of […] into 96-well plates and treated with test compounds, which were used at a top final assay concentration of 33.3 μM, diluted in assay medium with 1:3 dilutions to produce 10 point concentration responses, for 48 h. After incubation, the CCK-8 solution (10 μl) was added to each well of the plate and the plates were incubated in incubator at 37° C. for 3 h. Absorbance was recorded three times independently using a microplate reader (Bio-Rad Laboratories, Richmond, CA, USA) at 450 nm.
Selected examples were tested in the BV2 cell proliferation. The data mentioned below represents a mean pIC50 value of multiple test results. It is understood that the data illustrated below may have reasonable variation depending on the specific conditions and procedures used by the person conducting the testing.

U251 cell = U251 cell proliferation assay (CCK-8); type: cell-based; conditions: Homo sapiens, U-251; U251 cells; read-out: U251 Profileration pIC50 (converted)
From the text: [The source words this procedure for another cell line and reports this cell line under the same test.] as §1, §2

MIF = MIF (Homo sapiens (Human), UniProt P14174); experiment: MIF tautomerase assay using pHPP as substrate; type: biochemical; conditions: for Tautomerase Inhibition pIC50: cell-free, pHPP substrate 1.5 mM, MIF 3 nM, mean pIC50 of multiple test results; for IC50: read-out: Tautomerase Inhibition pIC50 (converted)
Description: Tautomerase Assay Using pHPP as substrate
This assay measured MIF's tautomerase activity in a cell-free system and was based on the determination of initial rates of the MIF-catalyzed conversion of the ketonic into the enolic tautomer of pHPP. This was achieved by spectrophotometric quantification of the complex between borate and the product of the reaction (enolic pHPP). The substrate was prepared by conversion of the enolic pHPP into its ketonic form. To achieve this, 0.5 M pHPP in methanol was diluted 10-fold with 50 mM sodium acetate buffer at pH 6.0, and then the suspension was shaken for 24 h at room temperature in darkness, and finally stored at 4° C. for not more than 1 week, with 5 min sonication being recommended before use.
Assays were performed in small-volume clear-bottom black 96 or 384-well polystyrene plates (Greiner Bio-One). First, 2 μL of the enzyme solution containing 6 nM of MIF in DPBS, 0.025% w/v BSA, and 300 μM CHAPS was dispensed onto sample and negative control wells using Multidrop Combi with metallic tip cassettes (Thermo Fisher Scientific) previously treated with Sigmacote. Then, 2 μL of the same buffer without MIF was dispensed onto positive control wells. The reaction was started by addition of the following to all wells: 2 μL of substrate solution containing 3 mM ketonic pHPP in 200 mM boric acid, 25 mM sodium phosphate, 0.025% w/v BSA, and 300 μM CHAPS at pH 6.0. In order to remove bubbles, the plate was centrifuged in an Allegra 25R centrifuge (Beckman Coulter, Inc., Brea, CA) at 1000 rpm for 2 min at room temperature. Then, the plate was read in an EnVision. Final concentrations of enzyme and substrate were 3 nM and 1.5 mM, respectively. Initial rates were calculated for each well as the slope of the absorbance progress curve.
The data mentioned below represents a mean pIC50 value of multiple test results. It is understood that the data illustrated below may have reasonable variation depending on the specific conditions and procedures used by the person conducting the testing.

Chain of MIF (P14174 2-115): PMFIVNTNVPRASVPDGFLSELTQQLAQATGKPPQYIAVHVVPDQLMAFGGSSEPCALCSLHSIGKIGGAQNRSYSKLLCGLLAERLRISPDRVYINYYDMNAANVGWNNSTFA

| IC50 (U251 cell) [mM] | Tautomerase Inhibition pIC50 (MIF) | IC50 (MIF) [nM] | Structure (SMILES) | IC50 (BV2 cells) [mM] |
| --- | --- | --- | --- | --- |
| > 1 |  |  | COc1cc(OC(C)(C)C(=O)O)ccc1C(=O)Nc1nnc(-c2cccs2)o1 [Compound 21, 2-(3-methoxy-4-((5-(thiophen-2-yl)-1,3,4-oxadiazol-2-yl)carbamoyl)phenoxy)-2-methyl propanoic acid] | > 1 |
| > 1 | 5.47 |  | COc1cc(CN2CCOCC2)ccc1C(=O)NCc1nnc(-c2cccs2)o1 [Compound 86, 2-methoxy-4-(morpholinomethyl)-N-((5-(thiophen-2-yl)-1,3,4-oxadiazol-2-yl)methyl)benzamide] | > 1 |
| > 1 | 4.20 |  | COc1cc(N2CCOCC2)ccc1C(=O)N(C)Cc1nnc(-c2cccs2)o1 [Compound 52, 2-methoxy-N-methyl-4-morpholino-N-((5-(thiophen-2-yl)-1,3,4-oxadiazol-2-yl)methyl)benzamide] | 0.00363 |
| > 1 | 5.66 |  | CNCCNc1ccc(C(=O)NCc2nnc(-c3cccs3)o2)c(OC)c1 [Compound 77, 2-methoxy-4-((2-(methylamino)ethyl)amino)-N-((5-(thiophen-2-yl)-1,3,4-oxadiazol-2-yl)methyl)benzamide] | > 1 |
| > 1 | <5 |  | O=C1c2ccccc2CCN1Cc1nnc(-c2cccs2)o1 [Compound 72, 2-((5-(thiophen-2-yl)-1,3,4-oxadiazol-2-yl)methyl)-3,4-dihydroisoquinolin-1(2H)-one] | 0.123 |
| > 1 |  |  | COc1cc(C(C)(C)O)ccc1C(=O)NCc1nnc(-c2cccs2)o1 [Compound 83, 4-(2-hydroxypropan-2-yl)-2-methoxy-N-((5-(thiophen-2-yl)-1,3,4-oxadiazol-2-yl)methyl)benzamide] | > 1 |
| > 1 |  |  | COc1cc(N2CCC(O)C2)ccc1C(=O)NCc1nnc(-c2cccs2)o1 (stereo not drawn) [Compound 78, 4-(3-hydroxypyrrolidin-1-yl)-2-methoxy-N-((5-(thiophen-2-yl)-1,3,4-oxadiazol-2-yl)methyl)benzamide] | 0.0794 |
| > 1 | 6.13 |  | COc1cc(N2CCCCC2)ccc1C(=O)NCc1nnc(-c2cccs2)o1 [Compound 56, 2-methoxy-4-(piperidin-1-yl)-N-((5-(thiophen-2-yl)-1,3,4-oxadiazol-2-yl)methyl)benzamide] | 0.0162 |
| > 1 |  |  | COc1cc(NCCO)ccc1C(=O)NCc1nnc(-c2cccs2)o1 [Compound 79, 4-((2-hydroxyethyl)amino)-2-methoxy-N-((5-(thiophen-2-yl)-1,3,4-oxadiazol-2-yl)methyl)benzamide] | > 1 |
|  |  | 18.6 | COc1cc([C@H]2CC[C@@H](C(=O)O)CC2)ccc1C(=O)Nc1nnc(-c2cccs2)o1 [Compound 27, Cis-4-(3-methoxy-4-((5-(thiophen-2-yl)-1,3,4-oxadiazol-2-yl)carbamoyl)phenyl)cyclohexane-1-carboxylic acid] |  |
|  | <5 |  | COc1cnccc1C(=O)NCc1nnc(-c2cccs2)o1 [Compound 47, 3-methoxy-N-((5-(thiophen-2-yl)-1,3,4-oxadiazol-2-yl)methyl)isonicotinamide] |  |
| 0.0355 |  |  | COc1cc(OC2CCNC2)ccc1C(=O)NCc1nnc(-c2cccs2)o1 (stereo not drawn) [Compound 81, 2-methoxy-4-(pyrrolidin-3-yloxy)-N-((5-(thiophen-2-yl)-1,3,4-oxadiazol-2-yl)methyl)benzamide] | > 1 |
|  | 5.09 |  | O=C(NCc1nnc(-c2cccs2)o1)c1ccccc1Cl [Compound 43, 2-chloro-N-((5-(thiophen-2-yl)-1,3,4-oxadiazol-2-yl)methyl)benzamide] |  |
|  | <5 |  | COc1cc(N2CCOCC2)ccc1S(=O)(=O)Nc1nnc(-c2cncs2)o1 [Compound 35, 2-methoxy-4-morpholino-N-(5-(thiazol-5-yl)-1,3,4-oxadiazol-2-yl)benzenesulfonamide] |  |
|  | 6.12 |  | COc1cc(OCCO)ccc1C(=O)NCc1nnc(-c2cccs2)o1 [Compound 70, 4-(2-hydroxyethoxy)-2-methoxy-N-((5-(thiophen-2-yl)-1,3,4-oxadiazol-2-yl)methyl)benzamide] |  |
|  | <5 |  | COc1cc(N2CCOCC2)ccc1C(=O)NCc1nnc(-c2ccns2)o1 [Compound 61, N-((5-(isothiazol-5-yl)-1,3,4-oxadiazol-2-yl)methyl)-2-methoxy-4-morpholinobenzamide] |  |
|  | 5.91 |  | COc1ccc(C(=O)Nc2ccc(-c3ccco3)nn2)c(OC)c1 [Compound 14, N-(6-(furan-2-yl)pyridazin-3-yl)-2,4-dimethoxybenzamide] |  |
|  | 7.09 |  | COc1cc(O)ccc1C(=O)Nc1nnc(-c2cccs2)o1 [Compound 16, 4-hydroxy-2-methoxy-N-(5-(thiophen-2-yl)-1,3,4-oxadiazol-2-yl)benzamide] |  |
|  |  | 38 | COc1cc([C@H]2CC[C@H](C(=O)O)CC2)ccc1C(=O)Nc1nnc(-c2cccs2)o1 [Compound 28, Trans-4-(3-methoxy-4-((5-(thiophen-2-yl)-1,3,4-oxadiazol-2-yl)carbamoyl)phenyl)cyclohexane-1-carboxylic acid] |  |
|  | 7.95 |  | COc1cc(CCCc2nn[nH]n2)ccc1C(=O)Nc1nnc(-c2cccs2)o1 [Compound 26, 4-(3-(2H-tetrazol-5-yl)propyl)-2-methoxy-N-(5-(thiophen-2-yl)-1,3,4-oxadiazol-2-yl)benzamide] |  |
|  | <5 |  | CN1CCC(C(=O)NCc2nnc(-c3cccs3)o2)CC1 [Compound 50, 1-methyl-N-((5-(thiophen-2-yl)-1,3,4-oxadiazol-2-yl)methyl)piperidine-4-carboxamide] |  |
| > 1 |  |  | COc1cc(OCCN2CCOCC2)ccc1C(=O)NCc1nnc(-c2cccs2)o1 [Compound 69, 2-methoxy-4-(2-morpholinoethoxy)-N-((5-(thiophen-2-yl)-1,3,4-oxadiazol-2-yl)methyl)benzamide] | 0.0447 |
|  | 8.14 |  | COc1cc(C2=CCC(C(=O)O)CC2)ccc1C(=O)Nc1nnc(-c2cccs2)o1 (stereo not drawn) [Compound 29, 3′-methoxy-4′-((5-(thiophen-2-yl)-1,3,4-oxadiazol-2-yl)carbamoyl)-2,3,4,5-tetrahydro-[1,1′-biphenyl]-4-carboxylic acid] |  |
|  | 7.68 |  | COc1cc(CCCC#N)ccc1C(=O)Nc1nnc(-c2cccs2)o1 [Compound 25, 4-(3-cyanopropyl)-2-methoxy-N-(5-(thiophen-2-yl)-1,3,4-oxadiazol-2-yl)benzamide] |  |
| > 1 |  |  | CNCCOc1ccc(C(=O)NCc2nnc(-c3cccs3)o2)c(OC)c1 [Compound 80, 2-methoxy-4-(2-(methylamino)ethoxy)-N-((5-(thiophen-2-yl)-1,3,4-oxadiazol-2-yl)methyl)benzamide] | 0.0263 |
| > 1 |  |  | COc1cc(OCC(=O)O)ccc1C(=O)Nc1nnc(-c2cccs2)o1 [Compound 19, 2-(3-methoxy-4-((5-(thiophen-2-yl)-1,3,4-oxadiazol-2-yl)carbamoyl)phenoxy)acetic acid] | > 1 |
|  | <5 |  | COc1ccc(C(=O)Nc2nnc(-c3ccco3)o2)c(Cl)c1 [Compound 1, 2-chloro-N-(5-(furan-2-yl)-1,3,4-oxadiazol-2-yl)-4-methoxybenzamide] |  |
